ChEMBL document CHEMBL2417463, “Synthesis and identification of new flavonoids targeting liver X receptor β involved pathway as potential facilitators of Aβ clearance with reduced lipid accumulation” (J Med Chem, 2013)
The source made the active and inactive calls. The rule behind the calls is not given here.

What was measured:
[1] = target: T1, Oxysterols receptor LXR-beta (Homo sapiens) (UniProt P55055); experiment: Agonist activity at human LXRbeta transfected in HEK293 cells at 0.1 uM after 24 hrs by luciferase reporter gene assay relative to vehicle-treated control; type: cell-based
T1 sequence (whole entry): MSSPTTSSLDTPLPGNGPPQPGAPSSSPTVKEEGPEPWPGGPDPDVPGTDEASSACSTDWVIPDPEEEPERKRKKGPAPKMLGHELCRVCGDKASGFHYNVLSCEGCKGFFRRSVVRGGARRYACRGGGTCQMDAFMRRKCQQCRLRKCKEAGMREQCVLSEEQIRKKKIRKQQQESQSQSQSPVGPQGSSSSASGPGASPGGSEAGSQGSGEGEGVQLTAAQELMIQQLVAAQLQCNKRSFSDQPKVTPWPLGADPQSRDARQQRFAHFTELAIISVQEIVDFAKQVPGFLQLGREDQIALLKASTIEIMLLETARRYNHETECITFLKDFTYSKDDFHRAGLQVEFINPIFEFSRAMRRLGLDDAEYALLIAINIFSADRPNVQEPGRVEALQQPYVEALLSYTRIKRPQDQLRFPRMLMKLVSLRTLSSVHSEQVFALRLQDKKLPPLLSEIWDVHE

[2] = target: T2, Oxysterols receptor LXR-alpha (Homo sapiens) (UniProt Q13133); experiment: Agonist activity at human LXRalpha transfected in HEK293 cells at 0.1 uM after 24 hrs by luciferase reporter gene assay relative to vehicle-treated control; type: cell-based
T2 sequence (whole entry): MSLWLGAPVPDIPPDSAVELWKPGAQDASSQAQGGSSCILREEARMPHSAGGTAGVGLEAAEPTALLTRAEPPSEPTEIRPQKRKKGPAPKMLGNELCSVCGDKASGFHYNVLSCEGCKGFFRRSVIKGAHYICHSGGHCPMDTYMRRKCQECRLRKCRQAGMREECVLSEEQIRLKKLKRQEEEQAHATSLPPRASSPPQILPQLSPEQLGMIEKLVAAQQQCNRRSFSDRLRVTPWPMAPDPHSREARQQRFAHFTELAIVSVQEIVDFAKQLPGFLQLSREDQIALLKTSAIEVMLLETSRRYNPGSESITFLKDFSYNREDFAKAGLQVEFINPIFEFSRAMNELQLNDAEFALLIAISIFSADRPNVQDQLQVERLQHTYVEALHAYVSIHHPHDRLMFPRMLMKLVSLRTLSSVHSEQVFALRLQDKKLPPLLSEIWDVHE

[3] = target: T3, Oxysterols receptor LXR-beta (Mus musculus) (UniProt Q60644); experiment: Agonist activity at LXRbeta in mouse RAW264.7 cells assessed as induction of ABCA1 promoter activation after 24 hrs by Dual-Glo luciferase reporter gene assay; type: cell-based
T3 sequence (whole entry): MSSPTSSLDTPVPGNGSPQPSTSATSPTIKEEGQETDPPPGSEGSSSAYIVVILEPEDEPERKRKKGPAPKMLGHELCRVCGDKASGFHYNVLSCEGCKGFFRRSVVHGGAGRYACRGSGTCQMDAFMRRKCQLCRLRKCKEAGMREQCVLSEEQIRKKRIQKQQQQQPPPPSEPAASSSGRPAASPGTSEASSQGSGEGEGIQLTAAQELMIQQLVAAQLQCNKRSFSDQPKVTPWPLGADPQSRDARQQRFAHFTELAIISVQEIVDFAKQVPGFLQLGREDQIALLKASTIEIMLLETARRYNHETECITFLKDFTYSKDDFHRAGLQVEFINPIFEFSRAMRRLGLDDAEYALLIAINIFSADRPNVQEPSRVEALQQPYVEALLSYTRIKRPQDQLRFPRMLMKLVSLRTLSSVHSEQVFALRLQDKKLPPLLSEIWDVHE

Mus musculus [4] = experiment: (§1) Antialzheimer activity in double transgenic B6C3 mouse overexpressing APP swedish mutant and PSEN1dE9 assessed as reduction of insoluble amyloid beta42 level at 10 mg/kg, ip administered 3 times per week measured after 6 weeks by ELISA relative to vehicle-treated control; type: functional; parameters: scale not given: the % may be the effect or the level left; conditions: route intraperitoneal
RAW264.7 = experiment: Cytotoxicity against mouse RAW264.7 cells assessed as inhibition of cell viability at 50 uM after 48 hrs by SRB assay relative to vehicle-treated control; type: cell-based; conditions: raw264.7, 48 h
HepG2 = experiment: Induction of intracellular triglyceride accumulation in human HepG2 cells at 10 uM after 4 days relative to vehicle-treated control; type: cell-based; conditions: hepg2, 96 h
Mus musculus [5] = experiment: as §1, with “of” for “of insoluble”, “plaque load in hippocampus” for “level”, “OC staining-based fluorescence microscopic analysis” for “ELISA”; type: functional; parameters: scale not given: the % may be the effect or the level left; conditions: route intraperitoneal
Mus musculus [6] = experiment: as §1, with “of” for “of insoluble”, “plaque number in cortex” for “level”, “OC staining-based fluorescence microscopic analysis” for “ELISA”; type: functional; parameters: scale not given: the % may be the effect or the level left; conditions: route intraperitoneal
Mus musculus [7] = experiment: as §1, with “of” for “of insoluble”, “plaque number in brain” for “level”, “thioflavin S staining-based fluorescence microscopic analysis” for “ELISA”; type: functional, organism-based; parameters: dose 10 mg/kg
Mus musculus [8] = experiment: as §1, with “of” for “of insoluble”, “beta plaque load in brain” for “beta42 level”, “thioflavin S staining-based fluorescence microscopic analysis” for “ELISA”; type: functional, organism-based; parameters: dose 10 mg/kg
Mus musculus [9] = experiment: Antialzheimer activity in double transgenic B6C3 mouse overexpressing APP swedish mutant and PSEN1dE9 assessed as reduction of soluble amyloid beta42 level at 10 mg/kg, ip administered 3 times per week measured after 6 weeks by ELISA relative to vehicle-treated control; type: functional; parameters: scale not given: the % may be the effect or the level left; conditions: route intraperitoneal
BV-2 = experiment: Upregulation of IDE mRNA expression in mouse BV2 cells at 0.01 to 1 uM after 18 hrs by real-time qPCR analysis; type: functional, cell-based
[10] = target: T3, Oxysterols receptor LXR-beta (Mus musculus); experiment: Agonist activity at LXRbeta in mouse BV2 cells assessed as degradation of intracellular soluble amyloid beta42 at 0.1 uM preincubated for 18 hrs followed by soluble amyloid beta42 addition measured after 24 hrs by ELISA relative to vehicle-treated control; type: cell-based; conditions: BV-2
[11] = target: T3, Oxysterols receptor LXR-beta (Mus musculus); experiment: Agonist activity at LXRbeta in mouse BV2 cells assessed as degradation of intracellular soluble amyloid beta42 at 1 uM preincubated for 18 hrs followed by soluble amyloid beta42 addition measured after 24 hrs by ELISA relative to vehicle-treated control; type: cell-based; conditions: BV-2
[12] = target: T3, Oxysterols receptor LXR-beta (Mus musculus); experiment: Agonist activity at LXRbeta in mouse BV2 cells assessed as upregulation of apoE protein expression at 10 uM after 48 hrs by Western blot analysis relative to vehicle-treated control; type: cell-based; conditions: BV-2
[13] = target: T3, Oxysterols receptor LXR-beta (Mus musculus); experiment: Agonist activity at LXRbeta in mouse BV2 cells assessed as upregulation of ABCA1 protein expression after 12 to 48 hrs by Western blot analysis; type: cell-based; conditions: BV-2
[14] = target: T3, Oxysterols receptor LXR-beta (Mus musculus); experiment: Agonist activity at LXRbeta in mouse BV2 cells assessed as upregulation of ABCA1 protein expression at 1 uM after 12 to 48 hrs by Western blot analysis; type: cell-based; conditions: BV-2
[15] = target: T3, Oxysterols receptor LXR-beta (Mus musculus); experiment: Agonist activity at LXRbeta in mouse RAW264.7 cells assessed as upregulation of ABCA1 protein expression after 18 to 48 hrs by Western blot analysis; type: cell-based
[16] = target: T1, Oxysterols receptor LXR-beta (Homo sapiens); experiment: Agonist activity at human LXRbeta transfected in HEK293 cells at 1 uM after 24 hrs by luciferase reporter gene assay relative to vehicle-treated control; type: cell-based

fold change (FC) [1]: 1.07
fold change (FC) [2]: 0.99
Activity [3]: Dose-dependent effect
Activity (HepG2): -0.3%
Activity [10]: 52%
Activity [11]: 59%
fold change (FC) [12]: 2.7
Activity [13]: Dose-dependent effect
Activity [14]: Active
Activity [15]: Dose-dependent effect
fold change (FC) [16]: 1.79
Structure (SMILES): Cc1ccc(/C=C/C(=O)c2ccc(N)cc2O)o1
Activity (Mus musculus [4]): 26%
Activity (RAW264.7): Non-toxic
Activity (Mus musculus [5]): 28%
Activity (Mus musculus [6]): 30%
Activity (Mus musculus [7]): Active
Activity (Mus musculus [8]): Active
Activity (Mus musculus [9]): 31%
Activity (BV-2): inactive
